Where two headings read alike, the source gives them in different places.
Tests used:
ABCB1, ABCC1, and ABCG2 = assay: Specificity screen against other ABC transporters: calcein AM (A2780/ADR), daunorubicin (H69AR) and pheophorbide A (MDCK II BCRP) assays; type: cell-based; settings: 10 µM compound; Supplementary Fig. S3; result in words
From the text: Apart from the high hit rate, potency, and structural diversity of the output molecules, it is important to note that the multitarget dataset cross-annotated the molecular-structural and physicochemical information of ligands on a multitude of targets. In order to assess its ABCA-specificity, we tested the hit compounds 4, 7, 8, 11, 13, 28, 29, 30, 32, 41, 46, 47, 50, 58, and 59 against ABC transporters of three different subfamilies, namely ABCB1, ABCC1, and ABCG2[40]. […] On the other hand, it is unlikely that the compounds bear selectivity toward ABCA1, which can be seen as opportunity to explore other ABCA transporters as well, and warrants future investigations.
Suppl ementary Fig. 3 Biological Assessment of hi t compounds 4 , 7, 8 , 11 , 13 , 28, 29, 30, 32,
cal ce i n AM (a), daunorubicin (b), and pheophorbide A (c) assays using ABCB1-expressing
A 2780/ A DR (a), A BCC 1- expressi ng H 69A R (b), and ABCG2-expressing MDCK II BCRP (c) cells as
2. Möhl e, L. , et al . ABC Transporter C1 Prevents Dimethyl Fumarate from Targeting
Alzheimer's Disease. Biology (Basel) 12 ( 7) , 932,
(1 picture or pasted object on this page, not shown here)

ABCA1 = ABCA1 (Mus musculus, UniProt P41233); assay: cell-based
Protocol: In order to validate the prediction capabilities of the presented workflow, these 66 molecules were assessed in one of the most commonly used assessment platforms for ABCA1 function[21], namely a 25-NBD-cholesterol assay and ABCA1-expressing murine J774A.1 macrophages [TB-67, American Type Culture Collection (ATCC); cultured in Dulbecco’s modified eagle medium (DMEM; Biowest, Nuaillé, France)].

[1] = IC50, full concentration-effect curves, Fig. 4(b), mean ± SEM of at least three independent experiments, J774A.1 cells

Chain of ABCA1 (P41233 whole entry): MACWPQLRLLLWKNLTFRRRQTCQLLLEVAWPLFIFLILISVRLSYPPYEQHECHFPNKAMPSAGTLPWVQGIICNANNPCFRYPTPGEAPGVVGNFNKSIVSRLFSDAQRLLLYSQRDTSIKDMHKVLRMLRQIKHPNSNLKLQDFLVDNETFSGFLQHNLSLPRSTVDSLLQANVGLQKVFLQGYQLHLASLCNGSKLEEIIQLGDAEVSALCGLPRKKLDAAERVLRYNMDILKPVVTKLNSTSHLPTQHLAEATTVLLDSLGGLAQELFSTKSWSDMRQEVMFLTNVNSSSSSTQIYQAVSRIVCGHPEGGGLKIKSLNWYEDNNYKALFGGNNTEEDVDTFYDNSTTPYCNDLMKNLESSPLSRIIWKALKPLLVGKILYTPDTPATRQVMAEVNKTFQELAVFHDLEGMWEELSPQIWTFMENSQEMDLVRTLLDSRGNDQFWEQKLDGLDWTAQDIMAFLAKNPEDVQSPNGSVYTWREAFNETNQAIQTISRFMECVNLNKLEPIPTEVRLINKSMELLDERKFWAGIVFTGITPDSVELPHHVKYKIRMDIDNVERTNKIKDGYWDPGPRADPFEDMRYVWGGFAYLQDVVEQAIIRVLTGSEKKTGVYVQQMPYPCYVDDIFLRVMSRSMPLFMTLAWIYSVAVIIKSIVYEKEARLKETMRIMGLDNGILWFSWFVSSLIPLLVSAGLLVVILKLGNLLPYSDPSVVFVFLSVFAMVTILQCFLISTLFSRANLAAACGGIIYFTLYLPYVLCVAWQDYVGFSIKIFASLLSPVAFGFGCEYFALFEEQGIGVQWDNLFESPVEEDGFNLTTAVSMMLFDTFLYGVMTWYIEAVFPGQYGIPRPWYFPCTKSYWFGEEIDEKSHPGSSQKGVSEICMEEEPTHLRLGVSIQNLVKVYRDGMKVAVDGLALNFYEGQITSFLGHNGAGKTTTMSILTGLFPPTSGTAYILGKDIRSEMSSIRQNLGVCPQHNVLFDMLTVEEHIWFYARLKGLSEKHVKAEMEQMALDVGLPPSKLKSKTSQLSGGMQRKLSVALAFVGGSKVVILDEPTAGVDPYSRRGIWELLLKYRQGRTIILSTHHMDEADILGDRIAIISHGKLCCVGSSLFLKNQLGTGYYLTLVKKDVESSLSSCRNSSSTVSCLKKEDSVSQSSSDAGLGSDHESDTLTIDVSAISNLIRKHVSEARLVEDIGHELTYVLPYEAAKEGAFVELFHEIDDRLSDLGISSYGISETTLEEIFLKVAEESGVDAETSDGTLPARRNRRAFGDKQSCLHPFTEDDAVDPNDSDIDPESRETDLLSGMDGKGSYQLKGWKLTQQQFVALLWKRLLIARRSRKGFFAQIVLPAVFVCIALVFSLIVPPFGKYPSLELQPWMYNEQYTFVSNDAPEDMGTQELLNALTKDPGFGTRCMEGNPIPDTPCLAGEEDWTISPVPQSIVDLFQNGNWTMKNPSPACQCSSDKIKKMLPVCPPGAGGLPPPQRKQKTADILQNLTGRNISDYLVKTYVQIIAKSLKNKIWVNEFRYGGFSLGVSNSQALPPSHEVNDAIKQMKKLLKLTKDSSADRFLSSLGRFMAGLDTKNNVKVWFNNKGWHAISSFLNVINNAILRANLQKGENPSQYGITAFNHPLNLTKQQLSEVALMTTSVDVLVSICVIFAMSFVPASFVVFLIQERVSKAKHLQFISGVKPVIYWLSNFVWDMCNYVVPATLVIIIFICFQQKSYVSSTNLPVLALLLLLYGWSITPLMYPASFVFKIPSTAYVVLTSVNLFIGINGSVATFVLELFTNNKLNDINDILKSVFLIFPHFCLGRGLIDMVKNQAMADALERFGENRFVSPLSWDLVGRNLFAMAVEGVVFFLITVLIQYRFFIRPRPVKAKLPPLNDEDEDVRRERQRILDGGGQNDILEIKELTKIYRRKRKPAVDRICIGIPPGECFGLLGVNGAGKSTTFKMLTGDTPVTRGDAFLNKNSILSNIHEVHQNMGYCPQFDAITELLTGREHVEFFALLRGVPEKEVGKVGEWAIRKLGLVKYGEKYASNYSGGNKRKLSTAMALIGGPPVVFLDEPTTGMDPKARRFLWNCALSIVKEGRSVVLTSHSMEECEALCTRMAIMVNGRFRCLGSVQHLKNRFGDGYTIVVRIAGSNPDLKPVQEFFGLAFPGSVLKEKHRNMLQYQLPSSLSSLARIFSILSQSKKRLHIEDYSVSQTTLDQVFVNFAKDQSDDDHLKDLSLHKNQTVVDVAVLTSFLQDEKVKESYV

Compound	inhibition of other ABC transporters (ABCB1, ABCC1, ABCG2) (ABCB1, ABCC1, and ABCG2)	IC50 (ABCA1)	IC50 (ABCA1; [1])
COCCc1ccc(OCC(O)CNC(=O)C2CC(F)(F)CCC2(C)C)cc1 (centres unmarked) [Compound 11]	least inhibition of other ABC transporters	5.08 ± 0.62 µM	8.76 ± 1.04 µM
COc1cc(OC)c2cc(C(=O)N3C[C@@H](O)CC4(CCCC4)C3)[nH]c2c1OC [Compound 47]	–	21.5 ± 3.4 µM	18.9 ± 2.3 µM
COc1ccc2c(N3C[C@H](O)[C@H](O)CC4(CCCC4)C3)ncnc2c1F [Compound 59]	significant inhibition against either two or three of the assessed transporters	9.12 ± 2.9 µM	21.2 ± 0.6 µM

— article PMC11116543, “Computer-aided pattern scoring – A multitarget dataset-driven workflow to predict ligands of orphan targets” (Scientific Data, 2024)
